Results taken from patent US12545637B2, “Extrahepatic targeted cationic lipid compound with high efficiency and low toxicity and its composition” (BEIJING YOUCARE KECHUANG PHARMACEUTICAL TECHNOLOGY CO., LTD., priority 2023, dated 2026).

Experiments:
[1] = Particle size and polydispersity index (PDI) of lipid nanoparticles by dynamic light scattering; type: physicochemical; settings: for PDI: LNP formulation of the cationic lipid, 25° C.; for Particle size: LNP formulation of the cationic lipid/DSPC/cholesterol/DMG-PEG2000 49:10:39.5:1.5, 25° C.
Description: The particle size and polydispersity index (PDI) were determined by dynamic light scattering using Malvern laser particle size analyzer.
10 μL of the liposome solution was weighed, diluted to 1 mL with RNase-free deionized water, and added to the sample pool. Each sample was measured in triplicate. The measurement conditions were: […] scattering angle, and 25° C.

[2] = Detection of encapsulation efficiency, drug loading concentration and total RNA concentration (RiboGreen); type: physicochemical; settings: LNP formulation prepared from the cationic lipid
Description: Encapsulation efficiency is a key quality attribute of liposomes, which refers to the percentage of drug content encapsulated in the lipid bimolecular layer accounting for the total drug dose and can reflect the degree of drug encapsulation in liposomes. The Chinese Pharmacopoeia stipulates that the encapsulation efficiency should generally not be less than 80%.
The drug loading amount is the ratio of the amount of drug in the liposome to the total amount of drug and carrier in the liposome. The drug loading amount directly affects the clinical application dose of the drug. […] The drug loading concentration is proportional to the drug loading amount, and the relative proportion of the drug loading concentrations can represent the relative proportion of the drug loading amounts. The relative ratio of the total RNA concentrations may represent the relative ratio of the amounts of mRNA carried by the LNP formulations.
1×TE buffer, 0.1% Triton X-100 buffer, RiboGreen reagent (1: 200) and mRNA standard stock solution were prepared.
An appropriate amount of the sample was added to an appropriate amount of 1×TE buffer, and the mixture was diluted to obtain a solution containing approximately […] sample per 1 mL. Then the sample was added to a 96-well plate, and 50 μL of the diluted test sample or the mRNA standard stock solution was added to each well, then 1×TE buffer and 0.1% Triton X-100 buffer were added. The sample was incubated at 37° C. for 10 minutes, and 100 μL RiboGreen reagent (1:200) was added to each well of the test sample in the 96-well plate. The sample was centrifugated, and the data were read using a microplate reader, and processed.

[3] = test system: 293T cells; assay: Fluorescent detection of Fluc-mRNA (cell transfection efficiency of LNP formulations); type: cell-based; settings: for Relative light unit (RLU): LNP with 0.3 μg Fluc-mRNA, 96-well plate, 24 hours
Description: (§1) Seeding plate: The cells in the culture dish were digested and counted. Cells were spread in a 96-well plate at 10,000 cells per well and in a 12-well plate at 150,000 cells per well. Cells were cultured overnight until the cells adhered to the wall.
The corresponding reagents were added according to the instructions of the Gaussia Luciferase Assay Kit, and the fluorescence expression intensity of each well was detected by an IVIS fluorescence detection system.

[4] = test system: 293T cells; assay: Cell survival rate assay (CCK-8); type: cell-based; settings: LNP with 1.5 μg Fluc-mRNA, 24 hours, CCK-8
Description: Cell recovery and passage: 293T cells were recovered, cultured in a culture dish, and passaged to the required number of cells.
as §1
An LNP formulation containing 1.5 μg of Fluc-mRNA (prepared according to example 4, the carrier components of the LNP formulation were cationic lipid, neutral lipid, structured lipid and polymer-conjugated lipid at a molar ratio of 49:10:39.5:1.5, wherein the cationic lipid was listed in Table 1) and the formulation of Lipofectamine 3000 were added to the cell culture medium of a 96-well plate, and further cultivated for 24 hours. 10 μL of CCK-8 solution was then added to each well, and the culture plate was incubated in an incubator for 1 hour. The absorbance at 450 nm was measured by a microplate reader.

[5] = test system: female BALB/C mice; assay: In vivo imaging in mice of Fluc-mRNA LNP formulations (mRNA expression and duration); settings: Fluc-mRNA LNP intramuscular; for average radiation intensity, 6 h: 6 h after administration; for average radiation intensity, 24 h: 24 h after administration; for average radiation intensity, 48 h: 48 h after administration; for average radiation intensity, 7 d: 7 d after administration
Description: The LNP formulation (prepared according to Example 4) containing […] Fluc-mRNA was injected intramuscularly into female BALB/C mice aged 4-6 weeks and weighed 17-19 g, and the mice were intraperitoneally injected with fluorescent imaging substrate at specific time points after administration (6h, 24 h, 48h and 7d), where the mice were allowed to free move for 5 minutes, and then the average radiation intensity (corresponding to fluorescence expression intensity) of the protein expression of the mRNA carried by the LNP in the mice was detected by the IVIS Spectrum small animal in vivo imaging system.

Row | PDI [1] | Particle size [1] | Drug loading concentration [2] | Encapsulation efficiency [2] | Total RNA concentration [2] | Compound | Relative light unit (RLU) [3] | Cell survival rate [4] | average radiation intensity, 6 h [5] | average radiation intensity, 24 h [5] | average radiation intensity, 48 h [5] | average radiation intensity, 7 d [5] | cell transfection efficiency, times that of YK-417 ([3]; ratio vs YK-417)
1 | 16.0% | 189 nm | 27.52 µg/mL | 63.4% | 38.50 µg/mL | CCCCCCCCCCOC(=O)CCCN(CCO)CCCCCC(=O)OCC(CCCCCCCC)CCCCCCCC [YK-009, reference compound] | 5146376 RLU | 70.43% | 981240 | 705470 | 100560 | 9555 | 
2 | 4.2% | 142 nm | 28.45 µg/mL | 75.3% | 33.41 µg/mL | CCCCCC(CC)OC(=O)CCCCCCCCN(CCO)CCN(CCO)CCCCCCCCC(=O)OC(CC)CCCCC (stereo not shown) [YK-404, di(octan-3-yl) 9, 9′-(ethane-1,2-diyl-bis((2-hydroxyethyl)azanediyl))dinonanoate] | 7543 RLU | 42.12% |  |  |  |  | 
3 | 4.3% | 141 nm | 33.42 µg/mL | 83.2% | 40.19 µg/mL | CCCCCCCCCCOC(=O)CCCN(CCO)CCN(CCO)CCCCCC(=O)OC(CCCCCCCC)CCCCCCCC [YK-405, Heptadecan-9-yl 6-((2-hydroxyethyl)(2-((2-hydroxyethyl)(4-(decyloxy)-4-oxobutyl)amino)ethyl)amino)hexanoate] | 3197780 RLU | 41.86% |  |  |  |  | 
4 | 15.8% | 154 nm | 30.19 µg/mL | 87.8% | 34.41 µg/mL | CCCCCCCCCCCOC(=O)CCCN(CCO)CCN(CCO)CCCCCCOC(=O)CC(CCCCCC)CCCCCC [YK-406, 6-((2-hydroxyethyl) (2-((2-hydroxyethyl)(4-(undecyloxy)-4-oxobutyl)amino)ethyl)amino)hexyl 3-hexylnonanoate] | 78251 RLU | 24.96% |  |  |  |  | 
5 | 16.2% | 136 nm | 45.42 µg/mL | 86.6% | 52.46 µg/mL | CCCCCCCCCCOC(=O)CCCN(CCO)CCN(CCO)CCCC(=O)OC(CCCCCCCC)CCCCCCCC [YK-408, heptadecan-9-yl 4-((2-hydroxyethyl)(2-((2-hydroxyethyl)(4-(decyloxy)-4-oxobutyl)amino)ethyl)amino)butyrate] | 1474136 RLU | 42.31% |  |  |  |  | 
6 | 13.7% | 155 nm | 34.14 µg/mL | 86.9% | 39.27 µg/mL | CCCCCCCCCCCOC(=O)CCCN(CCO)CCN(CCO)CCCCCC(=O)OCC(CCCCCCCC)CCCCCCCC [YK-409, 2-octyldecyl 6-((2-hydroxyethyl)(2-((2-hydroxyethyl)(4-(undecyloxy)-4-oxobutyl)amino)ethyl)amino) hexanoate] | 669807 RLU | 46.11% |  |  |  |  | 
7 | 15.5% | 163 nm | 29.48 µg/mL | 88.2% | 33.42 µg/mL | CCCCCCCCCCOC(=O)CCCCCN(CCO)CCN(CCO)CCCCCC(=O)OCC(CCCCCCCC)CCCCCCCC [YK-410, 2-octyldecyl 6-((2-hydroxyethyl)(2-((2-hydroxyethyl)(6-(decyloxy)-6-oxohexyl)amino)ethyl)amino)hexanoate] | 407868 RLU | 44.92% |  |  |  |  | 
8 |  |  |  |  |  | CCCCCCCCC(CCCCCCCC)C(=O)OCCCCCCN(CCO)CCCN(CCO)CCCCCCOC(=O)C(CCCCCCCC)CCCCCCCC [YK-412, (propane-1,3-diyl-bis((2-hydroxyethyl)azanediyl))-bis(hexane-6,1-diyl)bis(2-octyldecanoate)] | 3371352 RLU | 54.14% |  |  |  |  | 
9 | 16.1% | 160 nm | 23.63 µg/mL | 83.3% | 28.36 µg/mL | CCCCCCCCCCCOC(=O)CCCN(CCO)CCCN(CCO)CCCCCC(=O)OC(CCCCCCCC)CCCCCCCC [YK-413, heptadecan-9-yl 6-((2-hydroxyethyl)(3-((2-hydroxyethyl)(4-oxo-4-(undecyloxy)butyl)amino)propyl)amino)hexanoate] | 1377048 RLU | 47.20% |  |  |  |  | 
10 |  |  |  |  |  | CCCCCCCCCCOC(=O)CCCN(CCO)CCCN(CCO)CCCC(=O)OC(CCCCCCCC)CCCCCCCC [YK-414, decyl 4-(3-((4-(heptadecan-9-yloxy)-4-oxobutyl)(2-hydroxyethyl)amino)propyl)(2-hydroxyethyl)aminobutyrate] | 444089 RLU | 28.75% |  |  |  |  | 
11 | 15.6% | 178 nm | 31.08 µg/mL | 87.8% | 35.39 µg/mL | CCCCCCCCCCCOC(=O)CCCN(CCO)CCCN(CCO)CCCCCC(=O)OCC(CCCCCCCC)CCCCCCCC [YK-415, 2-octyldecyl 6-((2-hydroxyethyl)(3-((2-hydroxyethyl)(4-oxo-4-(undecyloxy)butyl)amino)propyl)amino)hexanoate] | 298021 RLU | 61.16% | 117840 | 64501 | 15790 | 4041 | 
12 | 19.7% | 190 nm | 25.16 µg/mL | 79.6% | 31.62 µg/mL | CCCCCCCCCCOC(=O)CCCCCN(CCO)CCCN(CCO)CCCCCC(=O)OCC(CCCCCCCC)CCCCCCCC [YK-416, decyl 6-((2-hydroxyethyl)(3-((2-hydroxyethyl)(6-((2-octyldecyl)oxy)-6-oxohexyl)amino)propyl)amino)hexanoate] | 3975264 RLU | 40.97% |  |  |  |  | 34
13 | 14.2% | 169 nm | 35.87 µg/mL | 94.9% | 37.81 µg/mL | CCCCCCCCC(CCCCCCCC)OC(=O)CCCCCN(CCO)CCCCN(CCO)CCCCCC(=O)OC(CCCCCCCC)CCCCCCCC [YK-420, di(heptadecan-9-yl) 6,6′-(butane-1,4-diylbis((2-hydroxyethyl)azanediyl))dihexanoate] | 4019330 RLU | 35.59% |  |  |  |  | 
14 | 17.4% | 148 nm | 33.93 µg/mL | 83.1% | 40.83 µg/mL | CCCCCCCCCCOC(=O)CCCN(CCO)CCCCN(CCO)CCCCCC(=O)OC(CCCCCCCC)CCCCCCCC [YK-421, heptadecan-9-yl 6-((4-((4-(decyloxy)-4-oxobutyl)(2-hydroxyethyl)amino)butyl)(2-hydroxyethyl)amino)hexanoate] | 466616 RLU | 35.71% |  |  |  |  | 
